Laboratory results taken from US11840686B2, “Modulation of prekallikrein (PKK) expression” (Ionis Pharmaceuticals, Inc., priority 2013, dated 2023).
Strand notation (5' to 3'): a small letter for the sugar, then the base; units joined by * are phosphorothioate-linked, units joined directly phosphodiester-linked; [ ] holds rarer units or linkages, { } end groups; capitals alone tell only the bases. e = 2'-O-(2-methoxyethyl) (MOE); k = constrained ethyl (cEt); [5mC] = 5-methylcytosine; d = 2'-deoxy (DNA)

System: human PKK mRNA
Assay: Antisense inhibition of human PKK mRNA in HepaRG cells, 1,000 nM, MOE/deoxy/cEt oligonucleotides (Example 3)
Format: cell-based
Summary of the method: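 Readout is percent PKK mRNA reduction against untreated controls, by real-time PCR (RTS3454) adjusted for total RNA via RIBOGREEN. Oligonucleotides, phosphorothioate gapmers of 16 nucleosides with cEt, MOE and deoxy sugars, were delivered at 1,000 nM by electroporation to 20,000 HepaRG cells/well for roughly 24 h.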

[1] = HepaRG cells, electroporation with 1,000 nM antisense oligonucleotide, approx. 24 hours, PKK mRNA by RT-PCR (RTS3454), relative to untreated control cells, Table 25 experiment
[2] = PKK mRNA, HepaRG cells, 1,000 nM antisense oligonucleotide, Table 31
[3] = Table 30, human PKK mRNA, HepaRG cells, 1,000 nM antisense oligonucleotide
[4] = Table 19, HepaRG cells, electroporation with 1,000 nM antisense oligonucleotide, approximately 24 hours, PKK mRNA by RT-PCR (RTS3454), relative to untreated control cells
[5] = Table 27, HepaRG cells, 1,000 nM antisense oligonucleotide, human PKK mRNA
[6] = Table 20, HepaRG cells, electroporation with 1,000 nM antisense oligonucleotide, approximately 24 hours, PKK mRNA by RT-PCR (RTS3454), relative to untreated control cells
[7] = Table 22 experiment, HepaRG cells, electroporation with 1,000 nM antisense oligonucleotide, approx. 24 hours, PKK mRNA by RT-PCR (RTS3454), relative to untreated control cells
[8] = HepaRG cells, 1,000 nM antisense oligonucleotide, Table 29
[9] = Table 21 experiment, HepaRG cells, electroporation with 1,000 nM antisense oligonucleotide, approx. 24 hours, PKK mRNA by RT-PCR (RTS3454), relative to untreated control cells
[10] = Table 28, HepaRG cells, 1,000 nM antisense oligonucleotide, human PKK mRNA
[11] = HepaRG cells, electroporation with 1,000 nM antisense oligonucleotide, approx. 24 hours, PKK mRNA by RT-PCR (RTS3454), relative to untreated control cells, Table 26 experiment
[12] = HepaRG cells, electroporation with 1,000 nM antisense oligonucleotide, approximately 24 hours, primer probe set RTS3454, relative to untreated control cells, experiment of Table 23

Substance: 548215 (eG*e[5mC]*kA*dT*dA*dG*dA*d[5mC]*d[5mC]*d[5mC]*d[5mC]*dA*dA*k[5mC]*kA*eG; antisense) [compound 548215]
- % inhibition [1]: 61%

Substance: 548625 (antisense eG*eT*kT*d[5mC]*dT*dA*d[5mC]*dA*d[5mC]*dA*d[5mC]*dA*dG*kT*kA*e[5mC]) [compound 548625]
- % inhibition [2]: 0%

Substance: 548428 (antisense eT*eA*kA*d[5mC]*dT*dA*dT*dA*dA*d[5mC]*dA*dG*dT*kA*kT*e[5mC]) [compound 548428]
- % inhibition [3]: 0%

Substance: 548075 (eA*e[5mC]*k[5mC]*dT*dT*dT*d[5mC]*dT*d[5mC]*d[5mC]*dT*dT*d[5mC]*kG*kA*eG; antisense) [compound 548075]
- % inhibition [4]: 0%

Substance: 548333 (antisense eG*eA*k[5mC]*dT*dG*dT*dG*d[5mC]*dT*dA*dT*d[5mC]*d[5mC]*kG*k[5mC]*eT) [compound 548333]
- % inhibition [5]: 58%

Substance: 548107 (antisense eT*e[5mC]*k[5mC]*dA*dT*dG*dT*dA*d[5mC]*dT*d[5mC]*dA*dG*k[5mC]*kG*eA) [compound 548107]
- % inhibition [4]: 76%

Substance: 547864 (antisense eT*eT*kG*dA*d[5mC]*dT*d[5mC]*d[5mC]*dT*d[5mC]*dT*d[5mC]*dA*kT*kA*eT) [compound 547864]
- % inhibition [6]: 53%
- % inhibition [7]: 73%

Substance: 548312 (eA*eT*kT*dT*dG*dG*d[5mC]*d[5mC]*d[5mC]*dT*dG*dA*dG*k[5mC]*k[5mC]*e[5mC]; antisense) [compound 548312]
- % inhibition [5]: 0%

Substance: 547906 (eT*eT*kA*d[5mC]*dT*d[5mC]*dA*dG*d[5mC]*dA*d[5mC]*d[5mC]*dT*kT*kT*eA; antisense) [compound 547906]
- % inhibition [6]: 59%
- % inhibition [7]: 70%

Substance: 548423 (antisense eA*eG*kT*dA*dT*d[5mC]*dA*d[5mC]*dT*dG*dT*d[5mC]*d[5mC]*kT*kA*eT) [compound 548423]
- % inhibition [3]: 72%

Substance: 548549 (antisense eT*eG*kT*dG*d[5mC]*dA*dA*dT*d[5mC]*dA*dG*dG*dT*kG*kG*eA) [compound 548549]
- % inhibition [8]: 56%

Substance: 548306 (eA*eT*kG*dT*dG*dA*d[5mC]*dA*dG*dT*d[5mC]*dA*dG*kG*kG*eA; antisense) [compound 548306]
- % inhibition [5]: 8%

Substance: 547825 (eT*e[5mC]*kG*dA*dT*dG*dT*dA*d[5mC]*dT*dT*dT*dT*kG*kG*e[5mC]; antisense) [compound 547825]
- % inhibition [9]: 59%

Substance: 547802 (eG*eT*kA*d[5mC]*dA*dT*dG*dG*dA*dA*dG*d[5mC]*dT*kA*k[5mC]*eA; antisense) [compound 547802]
- % inhibition [9]: 41%

Substance: 548622 (antisense eT*eT*kT*d[5mC]*dT*dA*dT*dG*dG*dG*d[5mC]*d[5mC]*dT*kG*kA*e[5mC]) [compound 548622]
- % inhibition [2]: 0%

Substance: 547871 (antisense eG*e[5mC]*kT*dA*dA*d[5mC]*d[5mC]*dT*dT*dA*dG*dA*d[5mC]*kA*k[5mC]*eA) [compound 547871]
- % inhibition [6]: 96%
- % inhibition [7]: 77%

Substance: 547818 (eG*eA*kT*dT*dG*dA*dA*d[5mC]*dT*dT*dG*d[5mC]*dT*kG*kG*eA; antisense) [compound 547818]
- % inhibition [9]: 4%

Substance: 548331 (antisense eA*e[5mC]*kA*dA*dT*d[5mC]*d[5mC]*d[5mC]*dT*dT*dA*dG*d[5mC]*k[5mC]*k[5mC]*eA) [compound 548331]
- % inhibition [5]: 73%

Substance: 548049 (eG*e[5mC]*kG*dA*dT*dA*dT*d[5mC]*dA*dT*dG*dA*dT*kT*k[5mC]*e[5mC]; antisense) [compound 548049]
- % inhibition (HepaRG cells, electroporation with 1,000 nM antisense oligonucleotide, approximately 24 hours, primer probe set RTS3454, relative to untreated control cells, experiment of Table 24): 62%

Substance: 548525 (antisense eG*eT*k[5mC]*dT*dA*dA*d[5mC]*dT*dG*dG*d[5mC]*d[5mC]*dT*kG*kG*e[5mC]) [compound 548525]
- % inhibition [10]: 2%

Substance: 548467 (e[5mC]*eA*kT*d[5mC]*dA*d[5mC]*dT*dG*dT*dA*d[5mC]*d[5mC]*dT*kA*kT*eA; antisense) [compound 548467]
- % inhibition [10]: 20%

Substance: 548539 (antisense e[5mC]*eG*k[5mC]*dG*d[5mC]*dG*dA*dA*dT*dG*d[5mC]*d[5mC]*dT*kG*k[5mC]*e[5mC]) [compound 548539]
- % inhibition [8]: 41%

Substance: 547803 (eT*eG*kT*dA*d[5mC]*dA*dT*dG*dG*dA*dA*dG*d[5mC]*kT*kA*e[5mC]; antisense) [compound 547803]
- % inhibition [9]: 0%

Substance: 547844 (antisense eG*e[5mC]*kA*d[5mC]*dT*dT*dA*dT*dT*dT*dG*dA*dT*kG*kA*e[5mC]) [compound 547844]
- % inhibition [6]: 13%
- % inhibition [7]: 76%

Substance: 548373 (eT*e[5mC]*k[5mC]*d[5mC]*d[5mC]*dA*dA*dG*dA*dT*dT*dA*dT*kG*kT*eG; antisense) [compound 548373]
- % inhibition [5]: 16%

Substance: 548629 (antisense e[5mC]*e[5mC]*k[5mC]*dA*dT*d[5mC]*dT*dT*dG*dG*dG*dA*d[5mC]*kT*kT*eT) [compound 548629]
- % inhibition [2]: 44%

Substance: 548474 (eG*eA*kA*dG*dG*dT*dG*dT*dG*d[5mC]*dT*dG*dT*k[5mC]*kG*e[5mC]; antisense) [compound 548474]
- % inhibition [10]: 33%

Substance: 548469 (eT*eT*k[5mC]*d[5mC]*d[5mC]*dT*dA*d[5mC]*d[5mC]*d[5mC]*d[5mC]*dT*dG*kG*kT*eA; antisense) [compound 548469]
- % inhibition [10]: 0%

Substance: 548239 (eT*eA*k[5mC]*dT*d[5mC]*dG*d[5mC]*d[5mC]*dT*dT*dT*dG*dT*kG*kA*e[5mC]; antisense) [compound 548239]
- % inhibition [11]: 18%

Substance: 548164 (eG*eA*k[5mC]*d[5mC]*dT*d[5mC]*dG*d[5mC]*dA*dT*dT*dG*dT*k[5mC]*kA*eG; antisense) [compound 548164]
- % inhibition [1]: 40%

Substance: 548659 (antisense e[5mC]*e[5mC]*kA*dA*d[5mC]*d[5mC]*dT*d[5mC]*dT*dA*dA*dG*dG*k[5mC]*kT*eA) [compound 548659]
- % inhibition [2]: 17%

Substance: 547974 (antisense eA*eA*kA*dG*dT*d[5mC]*dA*dA*d[5mC]*dT*d[5mC]*d[5mC]*d[5mC]*kG*kG*eG) [compound 547974]
- % inhibition [12]: 52%

Substance: 548297 (eA*e[5mC]*kT*d[5mC]*dT*d[5mC]*dA*dA*dG*d[5mC]*dT*d[5mC]*d[5mC]*kA*k[5mC]*eG; antisense) [compound 548297]
- % inhibition [11]: 32%

Substance: 547913 (eG*e[5mC]*kA*dA*d[5mC]*dA*dT*d[5mC]*d[5mC]*dA*d[5mC]*dA*dT*k[5mC]*kT*eG; antisense) [compound 547913]
- % inhibition [6]: 71%
- % inhibition [7]: 61%

Substance: 548322 (eA*eG*kG*dG*dA*dA*dA*dT*dT*dA*dG*dA*dG*kG*k[5mC]*eA; antisense) [compound 548322]
- % inhibition [5]: 38%

Substance: 548237 (eG*eT*kA*dT*dA*d[5mC]*dA*dT*d[5mC]*dT*dA*dG*dA*kT*kG*eA; antisense) [compound 548237]
- % inhibition [11]: 22%

Substance: 548420 (antisense eT*e[5mC]*k[5mC]*dT*dA*dT*dA*dT*d[5mC]*dA*d[5mC]*dT*dG*kT*k[5mC]*e[5mC]) [compound 548420]
- % inhibition [3]: 58%

Substance: 548540 (antisense eG*eA*k[5mC]*dA*d[5mC]*d[5mC]*dT*dG*d[5mC]*dT*dT*dG*dA*kT*kT*eA) [compound 548540]
- % inhibition [8]: 7%

Substance: 548298 (eG*eG*kA*d[5mC]*dA*dA*dT*dA*dT*dG*dT*d[5mC]*dT*k[5mC]*k[5mC]*eT; antisense) [compound 548298]
- % inhibition [11]: 0%

Substance: 547925 (eG*eG*kT*d[5mC]*d[5mC]*dG*dA*d[5mC]*dA*d[5mC]*dA*d[5mC]*dA*kA*kA*eA; antisense) [compound 547925]
- % inhibition [12]: 16%

Substance: 548460 (e[5mC]*eT*kA*dT*dA*d[5mC]*d[5mC]*dA*d[5mC]*dG*dG*dT*dA*kA*k[5mC]*eT; antisense) [compound 548460]
- % inhibition [10]: 0%

Substance: 547908 (e[5mC]*eA*kA*dT*dT*dT*d[5mC]*dT*dG*dA*dA*dA*dG*kG*kG*e[5mC]; antisense) [compound 547908]
- % inhibition [6]: 94%
- % inhibition [7]: 71%

Substance: 548266 (antisense eT*eT*kG*dG*d[5mC]*d[5mC]*dA*dA*d[5mC]*dT*d[5mC]*dT*dG*kT*kG*eG) [compound 548266]
- % inhibition [11]: 44%
